Among the data in PubChem BioAssay AID256 (DTP/NCI, 2004) are T/C values, retold here.

“And” between values parts separate entries of the source, which are not always exact repeats. Identical values can stand only once. Inconclusive results and toxic doses are left out.

The experiment relates to CD2F1 mice, L1210 leukemia ip, survival T/C. The experiment is described as follows: NCI In Vivo Anticancer Drug Screen. Data for tumor model L1210 Leukemia (intraperitoneal) in CD2F1 (CDF1) mice. The following applies: higher = longer survival. In outline: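 Implant tumor; dose compound or vehicle; measure endpoint in both groups; report treated divided by control.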
The mark [1] stands for this setting: endpoint: mean survival time, dose: 25.0 mg/kg/injection, schedule: Q01DX009 (ip), vehicle: saline.
Where [2] appears, read: endpoint: mean survival time, dose: 50.0 mg/kg/injection, schedule: Q01DX009 (ip), vehicle: saline.
Setting [3] is: endpoint: mean survival time, dose: 100.0 mg/kg/injection, schedule: Q01DX009 (ip), vehicle: saline with Tween-80.
Where [4] appears, read: endpoint: mean survival time, dose: 200.0 mg/kg/injection, schedule: Q01DX009 (ip), vehicle: saline with Tween-80.
Where [5] appears, read: endpoint: mean survival time, dose: 100.0 mg/kg/injection, schedule: Q04DX003 (ip), vehicle: saline with Tween-80.
Setting [6] is: endpoint: mean survival time, dose: 200.0 mg/kg/injection, schedule: Q04DX003 (ip), vehicle: saline with Tween-80.
The mark [7] stands for this setting: endpoint: mean survival time, dose: 400.0 mg/kg/injection, schedule: Q04DX003 (ip), vehicle: saline with Tween-80.
Where [8] appears, read: endpoint: mean survival time, dose: 12.5 mg/kg/injection, schedule: Q01DX009 (ip), vehicle: saline.
[9] abbreviates: endpoint: mean survival time, dose: 25.0 mg/kg/injection, schedule: Q01DX009 (ip), vehicle: other.

With `O=C1CC2(C(=O)N1CN1CCOCC1)c1ccccc1-c1ccccc12`, the T/C (endpoint: median survival time, dose: 25.0 mg/kg/injection, schedule: Q01DX009 (ip), vehicle: Klucel (hydroxypropylcellulose) (HPC)) is 103 % of control; the T/C (endpoint: median survival time, dose: 50.0 mg/kg/injection, schedule: Q01DX009 (ip), vehicle: Klucel (hydroxypropylcellulose) (HPC)) is 102 % of control; the T/C (endpoint: median survival time, dose: 100.0 mg/kg/injection, schedule: Q01DX009 (ip), vehicle: Klucel (hydroxypropylcellulose) (HPC)) is 96 % of control; the T/C (endpoint: median survival time, dose: 200.0 mg/kg/injection, schedule: Q01DX009 (ip), vehicle: Klucel (hydroxypropylcellulose) (HPC)) was 100 % of control; the T/C (endpoint: median survival time, dose: 400.0 mg/kg/injection, schedule: Q01DX009 (ip), vehicle: Klucel (hydroxypropylcellulose) (HPC)) was 107 % of control.
For `CC(C)=CCCC(C)CCN(C)C` (stereo not drawn), the T/C runs as follows: under setting [1], 94 % of control; under setting [2], 94 % of control; (endpoint: mean survival time, dose: 100.0 mg/kg/injection, schedule: Q01DX009 (ip), vehicle: saline) 93 % of control; (endpoint: mean survival time, dose: 100.0 mg/kg/injection, schedule: Q04DX003 (ip), vehicle: saline) 93 % of control.
As for `CN(CCC#N)Cc1cc(C(C)(C)C)cc(-c2ccccc2)c1O`, the T/C is 90 % of control under setting [3] and 90 % of control under setting [4].
For `COc1ccc(N(C)c2ccc(C(=C3C=CC(=[N+](C)CCO)C=C3)c3ccc(N(C)CCO)cc3)cc2)cc1`, the T/C runs as follows: (endpoint: mean survival time, dose: 6.25 mg/kg/injection, schedule: Q04DX002 (ip), vehicle: saline with Tween-80) 108 % of control; (endpoint: mean survival time, dose: 25.0 mg/kg/injection, schedule: Q04DX002 (ip), vehicle: saline with Tween-80) 108 % of control.
Turning to `CCCc1cc(CCC)nc(NNc2nc(CCC)cc(CCC)n2)n1`, the T/C was 96 % of control under setting [5], 94 % of control under setting [6] and 96 % of control under setting [7].
`COc1cc(OC)c2c[n+](C)c3c4cc(OC)c(OC)cc4ccc3c2c1`: the T/C is 102 % of control under setting [8], 102 % of control under setting [1] and 98 % of control under setting [2].
As for `Nc1ccc(CCCCc2nc(N)nc(N)c2-c2ccc(Cl)c(Cl)c2)cc1`, the T/C reads like this: under setting [5], 98 % of control; under setting [6], 100 % of control; under setting [7], 113 % of control.
In the case of `C=C1[C@@H](O)[C@]2(O)OC[C@@]34[C@H]1[C@@H](OC(=O)C(C)CC)C(=O)O[C@@H]3C[C@H]1C(C)=CC(=O)[C@@H](O)[C@]1(C)[C@@H]24` (stereo partly drawn), the T/C is 102 % of control (endpoint: mean survival time, dose: 0.25 mg/kg/injection, schedule: Q01DX009 (ip), vehicle: saline with Tween-80); 105 % of control (endpoint: mean survival time, dose: 0.5 mg/kg/injection, schedule: Q01DX009 (ip), vehicle: saline with Tween-80); 105 % of control (endpoint: mean survival time, dose: 1.0 mg/kg/injection, schedule: Q01DX009 (ip), vehicle: saline with Tween-80); 108 % of control (endpoint: mean survival time, dose: 2.0 mg/kg/injection, schedule: Q01DX009 (ip), vehicle: saline with Tween-80).
For `O=c1[nH]cc(N(CCCl)CCCl)c(=O)[nH]1`, the T/C is 101 % of control (endpoint: mean survival time, dose: 0.05 mg/kg/injection, schedule: Q01DX009 (ip), vehicle: saline); 106 % of control (endpoint: mean survival time, dose: 0.08 mg/kg/injection, schedule: Q01DX009 (ip), vehicle: saline); 109 % of control (endpoint: mean survival time, dose: 0.14 mg/kg/injection, schedule: Q01DX009 (ip), vehicle: saline); 112 % of control (endpoint: mean survival time, dose: 0.23 mg/kg/injection, schedule: Q01DX009 (ip), vehicle: saline); 107 % of control (endpoint: mean survival time, dose: 0.23 mg/kg/injection, schedule: Q04DX003 (ip), vehicle: saline); 109 % of control (endpoint: mean survival time, dose: 0.39 mg/kg/injection, schedule: Q04DX003 (ip), vehicle: saline). Also, the T/C reads like this: (endpoint: mean survival time, dose: 0.65 mg/kg/injection, schedule: Q01DX001 (ip), vehicle: saline) 115 % of control; (endpoint: mean survival time, dose: 0.65 mg/kg/injection, schedule: Q04DX003 (ip), vehicle: saline) 113 % of control; (endpoint: mean survival time, dose: 1.1 mg/kg/injection, schedule: Q01DX009 (ip), vehicle: saline) 167 % of control; (endpoint: mean survival time, dose: 1.1 mg/kg/injection, schedule: Q04DX003 (ip), vehicle: saline) 151 % of control; (endpoint: mean survival time, dose: 1.8 mg/kg/injection, schedule: Q01DX009 (ip), vehicle: saline) 115 % of control; (endpoint: mean survival time, dose: 1.8 mg/kg/injection, schedule: Q04DX003 (ip), vehicle: saline) 182 % of control. Besides, the T/C is 163 % of control (endpoint: mean survival time, dose: 3.0 mg/kg/injection, schedule: Q01DX001 (ip), vehicle: saline); 221 % of control (endpoint: mean survival time, dose: 5.0 mg/kg/injection, schedule: Q01DX001 (ip), vehicle: saline); 91 % of control (endpoint: mean survival time, dose: 5.0 mg/kg/injection, schedule: Q04DX003 (ip), vehicle: saline); 110 % of control (endpoint: mean survival time, dose: 8.4 mg/kg/injection, schedule: Q01DX001 (ip), vehicle: saline).
On to `O=C(O)C(Br)C(Br)c1ccccc1[N+](=O)[O-]` (stereo not drawn), for which the T/C by setting is: (endpoint: mean survival time, dose: 12.5 mg/kg/injection, schedule: Q01DX009 (ip), vehicle: other) 96 % of control; under setting [9], 103 % of control; (endpoint: mean survival time, dose: 50.0 mg/kg/injection, schedule: Q01DX009 (ip), vehicle: other) 100 % of control; (endpoint: mean survival time, dose: 100.0 mg/kg/injection, schedule: Q01DX009 (ip), vehicle: other) 102 % of control; (endpoint: mean survival time, dose: 200.0 mg/kg/injection, schedule: Q01DX009 (ip), vehicle: other) 97 % of control.
As for `CNC(=O)ON(C(C)=O)C(=O)NC`, the T/C runs as follows: under setting [8], 100 % of control and 107 % of control; under setting [1], 107 % of control and 109 % of control; under setting [2], 114 % of control and 109 % of control.
As for `CNC(=O)Nc1nc2ccc([N+](=O)[O-])cc2[nH]1`, the T/C was 109 % of control under setting [5], 105 % of control under setting [6] and 105 % of control under setting [7].
Take `c1ccc2c(CN3CC3)c[nH]c2c1`: the T/C was 101 % of control (endpoint: mean survival time, dose: 22.0 mg/kg/injection, schedule: Q01DX009 (ip), vehicle: other); 109 % of control under setting [9]; 103 % of control (endpoint: mean survival time, dose: 33.0 mg/kg/injection, schedule: Q01DX009 (ip), vehicle: other); 114 % of control under setting [3]; 112 % of control under setting [4].
`c1ccc(N=Nn2c3ccccc3c3ccccc32)cc1`: the T/C is, setting by setting: (endpoint: mean survival time, dose: 100.0 mg/kg/injection, schedule: Q01DX001 (ip), vehicle: saline with Tween-80) 104 % of control; (endpoint: mean survival time, dose: 200.0 mg/kg/injection, schedule: Q01DX001 (ip), vehicle: saline with Tween-80) 102 % of control; (endpoint: mean survival time, dose: 264.0 mg/kg/injection, schedule: Q01DX001 (ip), vehicle: saline with Tween-80) 104 % of control; (endpoint: mean survival time, dose: 400.0 mg/kg/injection, schedule: Q01DX001 (ip), vehicle: saline with Tween-80) 120 % of control; (endpoint: mean survival time, dose: 600.0 mg/kg/injection, schedule: Q01DX001 (ip), vehicle: saline with Tween-80) 104 % of control.
Take `COc1ccc(/C=C/C(=O)c2ccc(Cl)cc2)c(OC)c1`: the T/C was 101 % of control (endpoint: mean survival time, dose: 100.0 mg/kg/injection, schedule: Q04DX003 (ip), vehicle: other); 95 % of control (endpoint: mean survival time, dose: 200.0 mg/kg/injection, schedule: Q04DX003 (ip), vehicle: other); 93 % of control (endpoint: mean survival time, dose: 400.0 mg/kg/injection, schedule: Q04DX003 (ip), vehicle: other).
In the case of `O=C(C=P(CC[PH+](Cc1ccccc1)Cc1ccccc1)(Cc1ccccc1)Cc1ccccc1)c1ccccc1.[Cl][Pd][Cl]`, the T/C is, setting by setting: (endpoint: mean survival time, dose: 3.13 mg/kg/injection, schedule: Q04DX003 (ip), vehicle: distilled water + Tween-80) 98 % of control; (endpoint: mean survival time, dose: 6.25 mg/kg/injection, schedule: Q04DX003 (ip), vehicle: distilled water + Tween-80) 100 % of control; (endpoint: mean survival time, dose: 12.5 mg/kg/injection, schedule: Q04DX003 (ip), vehicle: distilled water + Tween-80) 104 % of control; (endpoint: mean survival time, dose: 25.0 mg/kg/injection, schedule: Q04DX003 (ip), vehicle: distilled water + Tween-80) 102 % of control; (endpoint: mean survival time, dose: 50.0 mg/kg/injection, schedule: Q04DX003 (ip), vehicle: distilled water + Tween-80) 96 % of control; (endpoint: mean survival time, dose: 100.0 mg/kg/injection, schedule: Q04DX003 (ip), vehicle: distilled water + Tween-80) 96 % of control. In addition, the T/C (endpoint: mean survival time, dose: 200.0 mg/kg/injection, schedule: Q04DX003 (ip), vehicle: distilled water + Tween-80) was 96 % of control.
Consider `C[CH2][Sn]([Cl])([Cl])[Cl].Oc1ccccc1C=NCCN=Cc1ccccc1O`, for which the T/C was 100 % of control (endpoint: mean survival time, dose: 50.0 mg/kg/injection, schedule: Q01DX009 (ip), vehicle: saline with Tween-80); 95 % of control under setting [3]; 98 % of control under setting [5]; 97 % of control under setting [4]; 89 % of control under setting [6].
